Experimental findings from patent US20080194653A1, “Therapeutic Agent For Solid Tumor” (KYOWA HAKKO KOGYO CO., LTD., priority 2005, published 2008) are described below.

Usually melting point stands for the temperature of the solid-liquid transition.

The structures appear in SMILES notation.

Data set [1] deals with human prostate cancer DU 145 cells. Put plainly: Cell growth inhibition test against prostate cancer cells (XTT). The data set is classed as cell-based. Particulars: read-out: GI50 value (concentration of 50% growth inhibition). As for the experimental part: (§1) A549 cells (1000 cells/well), SK-OV-3 cells (2000 cells/well), or HCT 116 cells (1000 cells/well) were seeded in each well of 96-well plates (Nunc, catalog No. 167008), and cultured overnight. Test compounds diluted stepwise were added, and the cells were further cultured for 72 hours (final volume: 100 μL/well). Fifty μL XTT labeling mixture of Cell Proliferation Kit II (XTT) (Roche Diagnostics, catalog No. 1465015) was added to each well, and the plates were incubated at 37° C. After 1 to 3 hours, absorbance at 490 nm (reference wavelength: 655 nm) was measured with a plate reader (Molecular Device, SpectraMax 340PC^384). Growth ratios of the cells in the wells treated with the test compounds were calculated based on the growth ratio of the cells in the control well treated with solvent (dimethyl sulfoxide (DMSO)) for 72 hours, which was defined as 100%.
(§2) As cancer cell lines, human pancreatic cancer MIA PaCa-2 cells (JCRB No. 0070), human cervical cancer HeLa cells (ATCC No. CCL-2), human breast cancer MDA-MB-468 cells (ATCC No. HTB-132), human prostate cancer DU 145 cells (ATCC No. HTB-81), human skin cancer SK-MEL-28 cells (ATCC No. HTB-72), human head and neck cancer KB cells (JCRB No. 9027), human renal cancer 786-0 cells (ATCC No. CRL-1932), and human liver cancer Hep G2 cells (ATCC No. HB-8065) were used. The cells were cultured at 37° C. in a 5% carbon dioxide atmosphere (except for the human breast cancer MDA-MB-468 cells, which were cultured under the condition at 37° C.) by using the mediums mentioned below, respectively.
(§3) In the same manner as that in Test Example 1, the cells were seeded (500 to 4000 cells/well, respectively) in each well of 96-well plates (Nunc, catalog No. 167008), and growth ratios of the cells treated with test compounds were calculated. The measurement of absorbance was performed at 1.5 to 3 hours after the addition of the XTT labeling mixture.
For orientation: Tetrazolium dyes change colour on reduction, which living cells bring about.

Data set [2] has as its system human colon cancer HCT 116 cells. Nature of the data set: Cell growth inhibition test against colon cancer cells (XTT). Particulars: read-out: GI50 value (concentration of 50% growth inhibition), 72 hours. The class given is cell-based. As for the experimental part:
(§4) As cancer cell lines, human lung cancer A549 cells (ATCC No. CCL-185), human ovarian cancer SK-OV-3 cells (ATCC No. HTB-77), and human colon cancer HCT 116 cells (ATCC No. CCL-247) were used. For the culture of A549 cells, Nutrient Mixture F-12K medium (Invitrogen, catalog No. 21127-022) containing 10% fetal bovine serum (Invitrogen, catalog No. 10099-141), 100 units/mL penicillin (Invitrogen, catalog No. 15140-122), and 100 μg/mL streptomycin (Invitrogen, catalog No. 15140-122) was used. For the culture of SK-OV-3 cells and HCT 116 cells, McCoy's 5A medium (Invitrogen, catalog No. 16600-082) containing 10% fetal bovine serum (Invitrogen, catalog No. 10099-141), 100 units/mL penicillin (Invitrogen, catalog No. 15140-122), and 100 μg/mL streptomycin (Invitrogen, catalog No. 15140-122) was used. The cells were cultured at 37° C. in a 5% carbon dioxide atmosphere.
as §1

Data set [3] concerns human liver cancer Hep G2 cells. Put plainly: Cell growth inhibition test against liver cancer cells (XTT). Conditions: HepG2, read-out: GI50 value (concentration of 50% growth inhibition). The data set is classed as cell-based. As for the experimental part:
as §1, §2, §3

In data set [4] the test system is human lung cancer A549 cells. Nature of the data set: Cell growth inhibition test against lung cancer cells (XTT). The data set is classed as cell-based. Particulars: read-out: GI50 value (concentration of 50% growth inhibition), 72 hours. As for the experimental part: as §4, §1
Data set [5] concerns human ovarian cancer SK-OV-3 cells. Nature of the data set: Cell growth inhibition test against ovarian cancer cells (XTT). The class given is cell-based. Conditions: read-out: GI50 value (concentration of 50% growth inhibition), 72 hours. As for the experimental part:
as §4, §1

Data set [6] deals with human skin cancer SK-MEL-28 cells. Nature of the data set: Cell growth inhibition test against skin cancer cells (XTT). The class given is cell-based. Conditions: read-out: GI50 value (concentration of 50% growth inhibition). As for the experimental part:
as §1, §2, §3

For data set [7], the system named is human renal cancer 786-0 cells. Nature of the data set: Cell growth inhibition test against renal cancer cells (XTT). The class given is cell-based. Particulars: read-out: GI50 value (concentration of 50% growth inhibition). As for the experimental part:
as §1, §2, §3

The target in data set [8] is T1, recombinant human Eg5 motor domain protein (Homo sapiens, UniProt P52732).
T1 construct: A plasmid expressing the motor domain of human Eg5 was constructed; made in house; host or cells: Escherichia coli BL21 (DE3)
T1 sequence (P52732 18-359 limits assumed): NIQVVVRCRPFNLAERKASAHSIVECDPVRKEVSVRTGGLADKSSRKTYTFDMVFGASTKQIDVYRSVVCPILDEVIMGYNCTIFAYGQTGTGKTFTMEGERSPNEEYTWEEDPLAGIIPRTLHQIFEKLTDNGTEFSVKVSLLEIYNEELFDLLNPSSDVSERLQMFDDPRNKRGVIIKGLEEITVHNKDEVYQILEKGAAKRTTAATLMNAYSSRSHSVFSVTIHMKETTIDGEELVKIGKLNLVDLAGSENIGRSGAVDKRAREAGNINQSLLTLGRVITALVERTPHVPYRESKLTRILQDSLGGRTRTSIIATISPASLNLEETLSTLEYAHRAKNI
Put plainly: Eg5 enzyme inhibition test (ATPase activity). Conditions: for IC50: 30° C., 30 minutes, absorbance at 360 nm, read-out: Inhibition ratios (IC50) on the ATPase activity of Eg5. The class given is biochemical. As for the experimental part: A recombinant human Eg5 motor domain protein was prepared by referring to the literature [Biochemistry, Vol. 35, p. […] A plasmid expressing the motor domain of human Eg5 was constructed, and transformed into Escherichia coli BL21 (DE3). The transformant was cultured at 25° C., and when the OD600 reached 0.74, isopropyl-β-D-thiogalactoside was added at a final concentration of 0.5 mmol/L. The transformant was further cultured for 4 hours, and then the culture medium was centrifuged to collect the cells. The cells were suspended in a buffer and ultrasonicated, and then the sonicated solution was centrifuged to recover the supernatant. The supernatant was purified by cation exchange column chromatography to obtain a partially purified sample. Furthermore, the partially purified sample was purified by gel filtration column chromatography to obtain a finally purified sample.
Measurement of the ATPase activity of Eg5 was carried out by referring to the literatures [EMBO Journal, Vol. 13, p. […] Solution A was dispensed into each well of a 96-well plate as 45 μL portions. Solution B was used to serially dilute a test compound. The diluted test compound solutions in a volume of 30 μL were mixed with Solution A added beforehand in each well of the 96-well plate to start the enzymatic reaction. The enzymatic reaction was performed at 30° C. for 30 minutes. […] The relative activity was calculated to calculate IC50 value.

For data set [9], the system named is human breast cancer MDA-MB-468 cells. Put plainly: Cell growth inhibition test against breast cancer cells (XTT). The data set is classed as cell-based. Conditions: read-out: GI50 value (concentration of 50% growth inhibition). As for the experimental part: as §1, §2, §3
The test system of data set [10] is human pancreatic cancer MIA PaCa-2 cells. Nature of the data set: Cell growth inhibition test against pancreatic cancer cells (XTT). The class given is cell-based. Particulars: read-out: GI50 value (concentration of 50% growth inhibition). As for the experimental part: as §1, §2, §3
For data set [11], the system named is human cervical cancer HeLa cells. Put plainly: Cell growth inhibition test against cervical cancer cells (XTT). Particulars: read-out: GI50 value (concentration of 50% growth inhibition). The class given is cell-based. As for the experimental part: as §1, §2, §3
Data set [12] deals with human head and neck cancer KB cells. Put plainly: Cell growth inhibition test against head and neck cancer cells (XTT). The class given is cell-based. Particulars: read-out: GI50 value (concentration of 50% growth inhibition). As for the experimental part:
as §1, §2, §3

On to `CCNCCS(=O)(=O)NCCC1(c2ccccc2)SC(NC(=O)C(C)(C)C)=NN1C(=O)C(C)(C)C` (single isomer, unassigned) [Compound i, N-{4-(2,2-Dimethylpropionyl)-5-[2-(2-ethylaminoethanesulfonylamino)ethyl]-5-phenyl-4,5-dihydro-1,3,4-thiadiazol-2-yl}-2,2-dimethylpropanamide], for which the GI50 in data set [1] was less than 10 µM; in data set [2] it was less than 0.1 µM; in data set [3] it was less than 10 µM; in data set [4], less than 10 µM; in [5], less than 10 µM; in data set [6], less than 10 µM. For the same compound, the GI50 in data set [7], in data set [9], in data set [10], in data set [11] and in [12] was less than 10 µM in each case. Further, in [8], the “Inhibition of the ATPase activity of Eg5 (in words)” value (“Inhibition” below) is reported as “inhibited the ATPase activity of Eg5 in a concentration-dependent manner”. For the same compound, the IC50 in [8] is less than 0.1 µM.

Regarding `CC(C)(C)C(=O)NC1=NN(C(=O)C(C)(C)C)C(CCCC(=O)NCCO)(c2ccccc2)S1` (single isomer, unassigned) [Compound o, 4-[3-(2,2-Dimethylpropionyl)-5-(2,2-dimethylpropionylamino)-2-phenyl-2,3-dihydro-1,3,4-thiadiazol-2-yl]-N-(2-hydroxyethyl)butanamide], the GI50 was less than 10 µM in data set [1]; less than 0.1 µM in [2]; less than 10 µM in data set [3]; less than 10 µM in data set [4]; less than 10 µM in data set [5]; less than 10 µM in data set [6]. Further, the GI50 in [7], in [9], in data set [10], in [11] and in data set [12] was less than 10 µM throughout. The “Inhibition” value in [8] is on record as “inhibited the ATPase activity of Eg5 in a concentration-dependent manner”. Also, the IC50 in [8] was less than 0.1 µM.

Compound `CC(C)(C)C(=O)NC1=NN(C(=O)C(C)(C)C)C(CCNS(C)(=O)=O)(c2ccccc2)S1` (single isomer, unassigned; (-)) [Compound a, (−)-N-[4-(2,2-Dimethylpropionyl)-5-(2-methanesulfonylaminoethyl)-5-phenyl-4,5-dihydro-1,3,4-thiadiazol-2-yl]-2,2-dimethylpropanamide] yielded a melting point of 204 to 206 °C. In addition, the GI50 in [1] is less than 10 µM. Also, the GI50 in data set [2] is less than 0.1 µM. In [3], the GI50 was less than 10 µM. Besides, the GI50 in [4] was less than 10 µM. Also, the GI50 in data set [5] was less than 10 µM. For the same compound, the GI50 in [6] was less than 10 µM. In data set [7], the GI50 is less than 10 µM. Besides, in data set [8], the “Inhibition” value is recorded as “inhibited the ATPase activity of Eg5 in a concentration-dependent manner” and the IC50 was less than 0.1 µM. The GI50 in [9] was less than 10 µM. In addition, the GI50 in data set [10] was less than 10 µM. Besides, in data set [11], the GI50 is less than 10 µM. For the same compound, the GI50 in data set [12] was less than 10 µM.

On to `CC(C)C(=O)N1N=C(NC(=O)C(C)(C)C)SC1(CCNS(C)(=O)=O)c1ccccc1` (single isomer, unassigned; (-)) [Compound d, (−)-N-[4-Isobutyryl-5-(2-methanesulfonylaminoethyl)-5-phenyl-4,5-dihydro-1,3,4-thiadiazol-2-yl]-2,2-dimethylpropanamide], for which the GI50 in [1] is less than 10 µM; in data set [2], less than 0.1 µM; in [3], less than 10 µM; in [4] it was less than 10 µM; in data set [5], less than 10 µM; in data set [6], less than 10 µM. The GI50 in [7], in data set [9], in [10], in [11] and in [12] was less than 10 µM throughout. The “Inhibition” value in data set [8] is “inhibited the ATPase activity of Eg5 in a concentration-dependent manner”. Besides, the IC50 in [8] is less than 0.1 µM.

As for `CN(C)CCS(=O)(=O)NCC1(c2ccccc2)SC(NC(=O)C(C)(C)C)=NN1C(=O)C(C)(C)C` (single isomer, unassigned; (-)) [Compound m, (−)-N-[5-(2-Dimethylaminoethanesulfonylaminomethyl)-4-(2,2-dimethyl-propionyl)-5-phenyl-4,5-dihydro-1,3,4-thiadiazol-2-yl]-2,2-dimethylpropanamide], the melting point fell in the range of 101 to 104 °C. Also, the GI50 in data set [1] was less than 10 µM. Besides, the GI50 in data set [2] is less than 0.1 µM. Further, the GI50 in data set [3] is less than 10 µM. The GI50 in data set [4] was less than 10 µM. Moreover, the GI50 in [5] was less than 10 µM. Besides, the GI50 in data set [6] is less than 10 µM. For the same compound, the GI50 in [7] is less than 10 µM. In addition, in [9], the GI50 is less than 10 µM. For the same compound, the GI50 in [10] was less than 10 µM. For the same compound, the GI50 in data set [11] was less than 10 µM. Further, the GI50 in data set [12] is less than 10 µM.

`CN(C)CCCS(=O)(=O)NCC1(c2ccccc2)SC(NC(=O)C(C)(C)C)=NN1C(=O)C(C)(C)C` (single isomer, unassigned; (-)) [Compound n, (−)-N-[5-(3-Dimethylaminopropanesulfonylaminomethyl)-4-(2,2-dimethylpropionyl)-5-phenyl-4,5-dihydro-1,3,4-thiadiazol-2-yl]-2,2-dimethyl-propanamide] returned a melting point of 92 to 95 °C. The GI50 in data set [1] was less than 10 µM. For the same compound, the GI50 in data set [2] is less than 0.1 µM. Further, the GI50 in [3] was less than 10 µM. For the same compound, the GI50 in data set [4] was less than 10 µM. Besides, in [5], the GI50 was less than 10 µM. Further, the GI50 in data set [6] is less than 10 µM. Besides, the GI50 in data set [7] is less than 10 µM. Besides, the GI50 in [9] is less than 10 µM. The GI50 in data set [10] is less than 10 µM. In data set [11], the GI50 is less than 10 µM. In addition, the GI50 in [12] is less than 10 µM.
